Series [1] relates to U2OS. Kind of series: Cytotoxicity against human U2OS cells assessed as reduction in cell viability incubated for 72 hrs by celltiter glo assay. On the technique in general: Cellular ATP, detected with luciferase, serves as a proxy for viable cell number.
The test system of another series is SW480. In words: Cytotoxicity against human SW480 cells assessed as reduction in cell viability incubated for 72 hrs by celltiter glo assay. Conditions: SW480, 72 h.
Series [2] has as its target Oxidized purine nucleoside triphosphate hydrolase (Homo sapiens) (UniProt P36639). In words: Inhibition of MTH1 in human U2OS cells assessed as activation of p53 at 2.25 uM incubated for 4 and 24 hrs by Peggy sue Western blot assay. The format is cell-based. In general terms: Immunoblotting shows a protein as a band on a membrane.
A short description of series [3]: Dissociation constant, pKa of the compound. The format is physicochemical.
Series [4] is described as follows: Permeability across apical to basolateral side in human Caco2 cells. Conditions: Caco-2. A general note: Caco-2 monolayers are a common model of the intestinal barrier.
Series [5] is described as follows: Permeability across basolateral to apical side in human Caco2 cells. Conditions: Caco-2, read-out: permeability. It counts as ADME, cell-based.
For series [6], the system named is U2OS. In words: Induction of DNA damage in human U2OS cells assessed as increase in gammaH2AX foci formation at 20 uM incubated for 72 hrs by immunostaining based confocal microscopy. The format is functional, cell-based.
Series [7] in a line: Cytotoxicity against human MT4 cells assessed as reduction in cell viability incubated for 72 hrs by celltiter glo assay. The format is cell-based.
The nature of series [8]: Kinetic solubility of compound at pH 2. Conditions: buffer.
A short description of series [9]: Kinetic solubility of compound at pH 7. Conditions: buffer.
A short description of series [10]: Oral bioavailability in Sprague-Dawley rat at 5 mg/kg. It counts as ADME, organism-based. Conditions: in vivo.
Series [11] can be described thus: Clearance in Sprague-Dawley rat at 5 mg/kg, po or 1 mg/kg, iv. It counts as ADME, organism-based. Conditions: in vivo.
The nature of series [12]: Volume of distribution in Sprague-Dawley rat at 5 mg/kg, po or 1 mg/kg, iv. The format is ADME, organism-based. Conditions: in vivo.
The nature of series [13]: Half life in Sprague-Dawley rat at 5 mg/kg, po or 1 mg/kg, iv. It counts as ADME, organism-based. Conditions: in vivo.
In series [14] the target is Voltage-gated inwardly rectifying potassium channel KCNH2 (Homo sapiens, UniProt Q12809). Kind of series: Inhibition of human ERG.
Voltage-gated inwardly rectifying potassium channel KCNH2, sequence (Q12809 whole entry, canonical isoform): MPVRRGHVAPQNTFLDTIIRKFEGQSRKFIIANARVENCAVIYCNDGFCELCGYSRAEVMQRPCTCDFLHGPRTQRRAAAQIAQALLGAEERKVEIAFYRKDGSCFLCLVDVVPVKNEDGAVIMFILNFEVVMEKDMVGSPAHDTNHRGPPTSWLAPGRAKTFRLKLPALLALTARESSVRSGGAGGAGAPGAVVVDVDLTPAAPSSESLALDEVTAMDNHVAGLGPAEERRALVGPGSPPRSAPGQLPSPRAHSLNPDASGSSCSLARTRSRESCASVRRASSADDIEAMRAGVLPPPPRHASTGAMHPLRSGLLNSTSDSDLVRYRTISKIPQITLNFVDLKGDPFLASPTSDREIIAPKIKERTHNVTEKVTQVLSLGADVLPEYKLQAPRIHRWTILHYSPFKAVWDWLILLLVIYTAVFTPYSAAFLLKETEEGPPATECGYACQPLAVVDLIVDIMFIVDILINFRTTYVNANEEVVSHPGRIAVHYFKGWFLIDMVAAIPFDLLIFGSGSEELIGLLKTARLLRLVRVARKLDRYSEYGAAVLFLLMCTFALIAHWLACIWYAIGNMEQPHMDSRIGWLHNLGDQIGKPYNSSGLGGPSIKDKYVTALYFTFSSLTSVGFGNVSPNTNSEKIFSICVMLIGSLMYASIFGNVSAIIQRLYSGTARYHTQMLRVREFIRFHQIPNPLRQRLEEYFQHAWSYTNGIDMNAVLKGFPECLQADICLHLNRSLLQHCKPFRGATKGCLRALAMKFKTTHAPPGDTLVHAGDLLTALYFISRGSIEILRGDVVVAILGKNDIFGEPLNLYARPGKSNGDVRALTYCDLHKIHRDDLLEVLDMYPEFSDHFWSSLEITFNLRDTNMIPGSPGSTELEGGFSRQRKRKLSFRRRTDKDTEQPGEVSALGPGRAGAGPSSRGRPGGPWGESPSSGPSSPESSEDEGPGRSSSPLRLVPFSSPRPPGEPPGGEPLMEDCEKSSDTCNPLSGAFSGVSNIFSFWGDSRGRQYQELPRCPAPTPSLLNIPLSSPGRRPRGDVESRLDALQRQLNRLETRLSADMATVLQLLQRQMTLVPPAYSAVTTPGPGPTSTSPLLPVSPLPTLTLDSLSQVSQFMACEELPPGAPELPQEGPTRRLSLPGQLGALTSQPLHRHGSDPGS
Series [15] addresses CYP isoform (not specified) (Homo sapiens, UniProt P04798+P05177+P05181+P08684+P10632+P10635+P11509+P11712+P13584+P20813+P20815+P20853+P24462+P24903+P33260+P33261+P51589+P78329+P98187+Q02928+Q08477+Q16678+Q16696+Q5TCH4+Q6VVX0+Q7Z449+Q8TAV3+Q96SQ9+Q9HB55). In words: Inhibition of CYP isoform (unknown origin). It counts as ADME, protein assay.
Series [16] addresses T1, Nuclear receptor subfamily 1 group I member 2 (Homo sapiens, UniProt O75469).
T1 sequence (O75469 whole entry): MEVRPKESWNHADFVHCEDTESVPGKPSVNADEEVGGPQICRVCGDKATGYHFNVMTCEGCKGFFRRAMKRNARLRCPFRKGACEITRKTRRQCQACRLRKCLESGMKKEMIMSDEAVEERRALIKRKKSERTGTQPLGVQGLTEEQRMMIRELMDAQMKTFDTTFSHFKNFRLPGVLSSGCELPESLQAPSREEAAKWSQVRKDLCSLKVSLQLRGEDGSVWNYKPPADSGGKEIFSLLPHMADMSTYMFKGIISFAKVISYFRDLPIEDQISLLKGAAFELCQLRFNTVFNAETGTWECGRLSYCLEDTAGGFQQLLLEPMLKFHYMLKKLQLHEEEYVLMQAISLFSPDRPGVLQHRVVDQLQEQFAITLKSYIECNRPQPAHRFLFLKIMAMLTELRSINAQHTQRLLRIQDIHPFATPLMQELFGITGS
In words: Activation of human PXR at 15 uM.

A short description of series [17]: Lipophilicity, logD of the compound at pH 7.4. The format is physicochemical. Conditions: buffer.
Series [18] can be described thus: Chemical stability of compound at pH 6 to 9 at 40 degreeC. Conditions: buffer. The format is physicochemical.
Series [19] can be described thus: Glutathione reactivity of compound. The format is physicochemical.
A short description of series [20]: Stability of compound in human plasma assessed as half life. The format is ADME, cell-free.
Series [21] is described as follows: Stability of compound in rat plasma assessed as half life. The format is ADME, cell-free.

Structures are written as SMILES. ≈ marks a conversion by molar mass, not a printed value. Calls of active or inactive are those of the source. No cut-off for these calls is given here. Bounds are passed on as bounds.

A word on the EC50: it is the concentration at which the effect is half-maximal. As to `C[C@H](Oc1cc(-c2cnn(C3CCNCC3)c2)cnc1N)c1c(Cl)ccc(F)c1Cl`, the concentration giving a half-maximal response (EC50) in the series on U2OS [1] stood at 6.8 µM.
As to `Nc1nc(NC2CC2)cc(-c2cccc(Cl)c2Cl)n1`, the values for the 50% effective concentration (EC50) in the series on U2OS [1] and with SW480 were 5.6 µM and 9.7 µM, respectively.
Take `O=C1c2c(O)ccc(O)c2C(=O)c2c(NCCNCCO)ccc(NCCNCCO)c21`: the inhibition result in series [2] was “Active”.
For orientation: pKa means the pH at which an ionisable group is half protonated. Low values mean a group that gives up its proton readily, high ones a group that holds its proton tightly. The Papp A→B is the apparent permeability from the apical to the basolateral side of a cell layer. Low values mean poor permeation, high ones ready permeation. For `CC(=O)Nc1cc2ncccc2c(-c2cccc(C)c2C)n1`, the pKa in series [3] was found to be 3.5. Besides, the Papp A→B in [4] stood at 37 ×10⁻⁶ cm/s. Also, in series [5], the Papp B→A stood at 45 ×10⁻⁶ cm/s.
For `CNc1cc(N2CCCCC2)nc(N)n1`, the outcome in the series with U2OS [6] was inactive.
Usually CC50 stands for the concentration at which the toxic effect on the cells reaches its halfway point. Regarding `CNc1cc(-c2cccc(Cl)c2Cl)nc(N)n1`, the figures for the EC50 with U2OS [1] and with SW480 were 0.7 to 1.8 µM and 3 µM, respectively. For the same molecule, the CC50 at 72 h in series [7] was found to be 0.726 µM. The result (in series [2]; in the series on U2OS [6]) was Active.
In the case of `Nc1nc2c(-c3cccc(Cl)c3Cl)cccc2[nH]1`, the EC50 in the series with U2OS [1] is 14.4 µM.
In general, kinetic solubility refers to the concentration staying in solution when a stock, usually in DMSO, is diluted into the medium. What is called bioavailability is dose-corrected exposure relative to a reference, in per cent. Read a low bioavailability as little systemic uptake. For orientation: half-life means how long it takes for the measured level to halve. For orientation: IC50 means the midpoint of a concentration-inhibition curve. Read a high IC50 as weaker potency in that assay. `Nc1nc2cccc(-c3cccc(Cl)c3Cl)n2n1`: the EC50 in the series with U2OS [1] was determined as 20.3 µM. This molecule also showed a Papp A→B in series [4] of 41 ×10⁻⁶ cm/s. The Papp B→A in series [5] came out at 34 ×10⁻⁶ cm/s. Further, the figures for the solubility (kinetic) in [8] and in series [9] were 93 µM (≈ 26 µg/mL) and 74 µM (≈ 20.7 µg/mL), respectively. This molecule returned a bioavailability in series [10] of 86%. Further, in series [11], the clearance is 12.2 mL/min/kg. This molecule registered a Vd in series [12] of 2.7 L/kg. Besides, in series [13], the half-life was 3.2 h. Also, the IC50 in series [14] and in [15] was over 25 µM each time. Moreover, the Activity entry in series [16] is given as “Not Active”. Also, the CC50 at 72 h in [7] was over 50 µM. Besides, in the series on U2OS [6], the result was inactive.
For `COc1ccc2nc3[nH]nc(C)c3c(NCCOCCO)c2c1`, the EC50 with U2OS [1] is over 20 µM.
On the same count and under the same terms, in the case of `CNc1cc(N(C)[C@@H](C)c2ccccc2)nc(N)n1` it was 24.9 µM.
Usually logD stands for the decadic logarithm of the distribution of all forms, ionised or not, between an organic phase and buffer at a given pH. High values mean a more lipophilic compound, low ones a more hydrophilic compound. `CC(=O)Nc1cc2c(c(-c3cccc(C)c3C)n1)CCCN2`: in the series on U2OS [1], the EC50 stood at 8.05 µM. Moreover, the pKa in series [3] was found to be 7.5. Also, the Papp A→B in series [4] was determined as 35 ×10⁻⁶ cm/s. The Papp B→A in series [5] worked out at 32 ×10⁻⁶ cm/s. Moreover, the logD in [17] came out at 2.5. For the same molecule, in series [18], the Stability entry is given as “Stable”. Moreover, in series [19], the Activity entry was “Not Active”. Moreover, the kinetic solubility was 97 µM (≈ 28.7 µg/mL) in series [8] and 70 µM (≈ 20.7 µg/mL) in series [9]. Moreover, the half-life in [20] worked out at 4.2 h; in [21], 7.43 h. Moreover, in [7], the CC50 at 72 h came out at 19 µM. Moreover, the result in the series on U2OS [6] was inactive.

Values taken from ChEMBL document CHEMBL4342490, “Discovery of Potent and Selective MTH1 Inhibitors for Oncology: Enabling Rapid Target (In)Validation” (ACS Med Chem Lett, 2020).
